Source: patent EP2167056B1, “TRANSDERMAL AND TRANSMUCOSAL DRUG DELIVERY ENHANCERS” (priority 2007, dated 2008)
Read-outs that look alike come from different tables or passages of the source.

What was measured:
[1] = Franz diffusion cell permeation of hydromorphone hydrochloride with delmopinol analogues (Example 2); settings: 5 % hydromorphone hydrochloride in distilled water with 25 % delmopinol analogue
Experimental: The permeation test was carried out using a Franz diffusion cell with a diffusion area of 1.8 cm^2 as in Example 1. […] Penetration with or without addition of different delmopinol analogues was studied in 5 parallel tests (3 cells per test).

plasma glucose [2] = assay: Intravenous administration of octapinol hydrochloride + insulin, reduction in plasma glucose; format: in vivo, Sprague Dawley male rats; settings: 1% octapinol hydrochloride + 0.2 IE insulin/kg intravenously, after 20 minutes
Experimental: A reduction in plasma glucose of about 40 % was observed after 20 minutes.
(§1) The plasma content of glucose was determined through measurement of the amount NADH formed in accordance with the below reactions. [drawing 4] glucose-6-phosphate + NAD^+ -----> 6-phosphogluconate + NADH + H^+

plasma glucose [3] = assay: Nasal absorption of insulin with octapinol hydrochloride, reduction in plasma glucose (Example 6); format: in vivo, Sprague Dawley male rats; settings: for D (%) total reduction in plasma glucose / Maximum reduction in plasma glucose (%): nasal, mean (S.D.), n=6
Experimental: Tests on the enhancement effect of octapinol (M1523), i.e.4-(2-propylpentyl)-1- 2-propylpentyl)-1-piperidine-ethanol, a compound according to Formula (I), for nasal absorption of peptides were carried out on Sprague Dawley male rats with an individual weight of 250-300 g. The rats were fasted for 15-17 hours and anaesthetized prior to the tests. Trachea and arteria carotis were catheterized with a polyethylene tube. The peptide used for the tests was insulin.
The rats were divided into 5 groups and were administered through the nostril via a polyethylene tube with • 1 % octapinol hydrochloride (placebo group) • insulin (Actrapid ® Human from NovoNordisk, Denmark) 5 IE/kg body weight in physiological NaCl (control group) • insulin 2.5 IE/kg body weight with 0.02% octapinol hydrochloride (test group) • insulin 2.5 IE/kg body weight with 0.2% octapinol hydrochloride (test group) • insulin 2.5 IE/kg body weight with 1% octapinol hydrochloride (test group) The pH-value was 3.1 in the test solutions. The administration volume per rat was 25-30 µl.
There were 4 rats in the placebo group, 3 rats in the control group and 6 rats in each of the three test groups.
During the initial tests octapinol hydrochloride was administered nasally together with insulin 5 IE/kg body weight. At an early stage, pronounced reductions in plasma glucose with 1% octapinol hydrochloride were noted.
In the control and test groups 150 µl blood was taken from arteria carotis 0, 10, 20, 30, 40, 50, 60, 120, 180 and 240 minutes respectively after administration.
as §1
The change in glucose content was set off against time and the area below the graph (AUC) was calculated with the trapezium method.
The total reduction in plasma glucose (D%) and the maximal reduction in plasma glucose after nasal administration of insulin with octapinol hydrochloride is given in Table 6. The total reduction in plasma glucose (D%) was calculated according to Hirai et al (Int. J. Pharmaceut., 9,173-184: 1981). D % = (AUCc −AUCin)/(AUCc) × 100 [formula] • AUCc= area under the graph for intranasally administered insulin 5 IE/kg body weight in physiological Na Cl (control group) • AUCin= area under the graph for intranasally administered insulin in octapinol solution Table 6

[4] = Franz diffusion cell permeation of 3H-labeled TRH (Example 5); format: in vitro ADME, human
Experimental: A human full-skin sample was positioned in the cell with a 0.05 M phosphate buffer solution (pH 6.0) as receiving phase on the "receptor" side of the skin. 180 µl of 5 % thyroid-releasing hormone (TRH) in dist. water with and without the addition of 25% delmopinol hydrochloride was used on the "donor" side of the skin. The TRH was ^3H-labeled. Penetration with and without addition of delmopinol hydrochloride was studied in 2 parallel tests (4 cells per test).
Radioactivity in the receiving phase was read at different time intervals over a one week period.

[5] = Experimental: The permeation test was carried out using a Franz diffusion cell with a diffusion area of 1.8 cm^2 as in Example 1. […] 180 µl of 1 % nicotinic acid in distilled water with and without the addition of 25% delmopinol hydrochloride was used on the "donor" side of the skin. The nicotinic acid was ^14C-labeled. Penetration with and without addition of delmopinol hydrochloride was studied in 2 parallel tests (3 cells per test).
Radioactivity in the receiving" phase was read at different time intervals over a one week period. […]

Remark: listed apart in the source
[6] = format: in vitro ADME, human
Experimental: 180 µl of 1 % mannitol in distilled water with and without the addition of 1, 5, 10 and 25 % delmopinol hydrochloride respectively was used on the "donor" side of the skin. The mannitol was ^3H-labeled.
A very pronounced effect of the penetration enhancer was seen, but only little if any difference between the concentrations 5, 10 and 25 %, as shown in Table 4.

[7] = insulin 2.5 IE/kg with 0.02 % octapinol hydrochloride
[8] = insulin 2.5 IE/kg with 0.2 % octapinol hydrochloride
[9] = insulin 2.5 IE/kg with 1 % octapinol hydrochloride

Compound: CCCC(CCC)CC1CCN(CCO)CC1 [M 1523 (octapinol)]
- Flux (of hydromorphone hydrochloride) [1]: 13 µg/h/cm^2
- reduction in plasma glucose (plasma glucose [2]): about 40%
- change in plasma glucose level (plasma glucose [3]; 1% octapinol hydrochloride alone, nasally, four rats): No significant change
- reductions in plasma glucose, of the initial plasma glucose value (plasma glucose [3]; initial tests: nasal, insulin 5 IE/kg with 1% octapinol hydrochloride): 85 - 90%
- D (%) total reduction in plasma glucose (plasma glucose [3]; [7]): 3.6 (3.2) %
- Maximum reduction in plasma glucose (%) (plasma glucose [3]; [7]): 3.5 (2.9) %
- D (%) total reduction in plasma glucose (plasma glucose [3]; [8]): 9.5 (5.3) %
- Maximum reduction in plasma glucose (%) (plasma glucose [3]; [8]): 6.5 (3.5) %
- D (%) total reduction in plasma glucose (plasma glucose [3]; [9]): 23.8 (5.8) %
- Maximum reduction in plasma glucose (%) (plasma glucose [3]; [9]): 39.1 (11.3) %

Compound: CCCCCCCCCCC1CN(CCCO)CCO1 (stereo not shown) [M 1676]
- Flux (of hydromorphone hydrochloride) [1]: 19 µg/h/cm^2

Compound: CCCC(CCC)CCCC1COCC[N+]1(C)CCO.[Cl-] (stereo not shown) [M 1713, 4-(2-hydroxyethyl)-4-methyl-3-(4-propylheptyl)-morpholinium chloride]
- Flux (of hydromorphone hydrochloride) [1]: 4.8 µg/h/cm^2

Compound: CCCC(CCC)CCCC1COCCN1CCO (stereo not shown) [delmopinol]
- Flux (steady state flux of TRH) ([4]; pH 6): 34 ng/h/cm^2
- Flux (steady state flux of nicotinic acid) ([5]; pH 7.4): 1.5 µg/h/cm^2
- steady state flux of morphine sulphate (10 % morphine sulphate in distilled water with 25% delmopinol hydrochloride): about 26 µg/h/cm^2
- factor by which permeation of hydromorphone hydrochloride is increased (in the presence of 25 % delmopinol versus without): about 290

Compound: OC[C@@H](O)[C@@H](O)[C@H](O)[C@H](O)CO [mannitol, reference compound]
- Flux (of mannitol) [6]: 6.6 µg/h/cm^2

Compound: O=C(O)c1cccnc1 [nicotinic acid, reference compound]
- Flux (steady state flux of nicotinic acid) [5]: 0.15 µg/h/cm^2

Compound: thyroid-releasing hormone (TRH) [reference compound]
- Flux (steady state flux of TRH) ([4]; 5 % TRH in dist. water without enhancer): 4 ng/h/cm^2
